Source: patent US20210254056A1, “IDENTIFICATION AND TARGETED MODULATION OF GENE SIGNALING NETWORKS” (CAMP4 THERAPEUTICS CORPORATION, priority 2017, published 2021)

Tested on: hepatocytes
Assay: RNA-seq of hepatocytes treated with Phase III failure compounds
Description: RNA-seq was performed to determine the effects of the compounds on hepatocytes.
Significance was determined by the criteria of FPKM≥0.5, a log 2(fold-change)≥1, and a […].

C=CCNC1=C2C[C@@H](C)C[C@H](OC)[C@H](O)[C@@H](C)/C=C(\C)[C@H](OC(N)=O)[C@@H](OC)/C=C\C=C(/C)C(=O)NC(=CC1=O)C2=O [17-MG (Tanespimycin), Tanespimycin]
RNA-seq results, CYP2B6 expression: 1.32
RNA-seq results, CYP2C19 expression: 0.34
RNA-seq results, CYP2D6 expression: 0.06
RNA-seq results, CYP3A4 expression: 2.50
RNA-seq results, CYP7B1 expression: 0.43
RNA-seq results, CYP39A1 expression: 1.38
RNA-seq results: CYP2B6 expression: 0.2
RNA-seq results: CYP2C19 expression: −1.4
RNA-seq results: CYP2D6 expression: 0.27
RNA-seq results: CYP3A4 expression: 0.96
RNA-seq results: CYP7B1 expression: −1.05
RNA-seq results: CYP39A1 expression: −0.62
RNA-seq results: A1BG expression (gene A1BG, hepatocytes): −0.10
RNA-seq results: AGTR1 expression (gene AGTR1, hepatocytes): −0.03
RNA-seq results: AGXT expression (gene AGXT, hepatocytes): 0.27
RNA-seq results: AHI1 expression (gene AHI1, hepatocytes): 0.39
RNA-seq results: AMPD3 expression (gene AMPD3, hepatocytes): 1.15
RNA-seq results: AMT expression (gene AMT, hepatocytes): 0.31
RNA-seq results: ANGPTL3 expression (gene ANGPTL3, hepatocytes): 0.06
RNA-seq results: ANKS4B expression (gene ANKS4B, hepatocytes): 1.12
RNA-seq results: ANKS6 expression (gene ANKS6, hepatocytes): −0.15
RNA-seq results: ANPEP expression (gene ANPEP, hepatocytes): −0.06
RNA-seq results: AOC2 expression (gene AOC2, hepatocytes): 0.24
RNA-seq results: APOA2 expression (gene APOA2, hepatocytes): −0.64
RNA-seq results: APOA5 expression (gene APOA5, hepatocytes): 0.07
RNA-seq results: APOB expression (gene APOB, hepatocytes): 2.13
RNA-seq results: COG5 expression (gene COG5, hepatocytes): −1.94
RNA-seq results: COG6 expression (gene COG6, hepatocytes): −0.28
RNA-seq results: COL1A1 expression (gene COL1A1, hepatocytes): 0.45
RNA-seq results: COX6A1 expression (gene COX6A1, hepatocytes): 0.27
RNA-seq results: CP expression (gene CP, hepatocytes): 0.19
RNA-seq results: CPS1 expression (gene CPS1, hepatocytes): −0.79
RNA-seq results: CPT1A expression (gene CPT1A, hepatocytes): −1.18
RNA-seq results: CPT2 expression (gene CPT2, hepatocytes): 1.3
RNA-seq results: CROT expression (gene CROT, hepatocytes): 0.23
RNA-seq results: CSPP1 expression (gene CSPP1, hepatocytes): −0.45
RNA-seq results: CTC1 expression (gene CTC1, hepatocytes): 0.65
RNA-seq results: CTDSP2 expression (gene CTDSP2, hepatocytes): −0.36
RNA-seq results: CTH expression (gene CTH, hepatocytes): 1.32
RNA-seq results: CTNS expression (gene CTNS, hepatocytes): −0.39
RNA-seq results: CTSF expression (gene CTSF, hepatocytes): 0.01
RNA-seq results: CTSK expression (gene CTSK, hepatocytes): 1.01
RNA-seq results: CYB5A expression (gene CYB5A, hepatocytes): −0.54
RNA-seq results: CYB5R3 expression (gene CYB5R3, hepatocytes): −0.57
RNA-seq results: CYP27A1 expression (gene CYP27A1, hepatocytes): −0.12
RNA-seq results: DAO expression (gene DAO, hepatocytes): −0.79
RNA-seq results: DBT expression (gene DBT, hepatocytes): −0.27
RNA-seq results: DCDC2 expression (gene DCDC2, hepatocytes): −2.14
RNA-seq results: DCXR expression (gene DCXR, hepatocytes): −0.21
RNA-seq results: FABP1 expression (gene FABP1, hepatocytes): −0.95
RNA-seq results: FADD expression (gene FADD, hepatocytes): −0.41
RNA-seq results: FAM111A expression (gene FAM111A, hepatocytes): 0.93
RNA-seq results: FAM111B expression (gene FAM111B, hepatocytes): −1.24
RNA-seq results: FAN1 expression (gene FAN1, hepatocytes): 0.32
RNA-seq results: FARS2 expression (gene FARS2, hepatocytes): −3
RNA-seq results: FASLG expression (gene FASLG, hepatocytes): −1.15
RNA-seq results: FGA expression (gene FGA, hepatocytes): 0.46
RNA-seq results: FGD1 expression (gene FGD1, hepatocytes): −1.37
RNA-seq results: FGFR2 expression (gene FGFR2, hepatocytes): −2.48
RNA-seq results: FIG4 expression (gene FIG4, hepatocytes): −0.69
RNA-seq results: FIS1 expression (gene FIS1, hepatocytes): −0.22
RNA-seq results: FTCD expression (gene FTCD, hepatocytes): −1.66
RNA-seq results: FTH1 expression (gene FTH1, hepatocytes): −0.49
RNA-seq results: FUCA1 expression (gene FUCA1, hepatocytes): 0.43
RNA-seq results: FXN expression (gene FXN, hepatocytes): −1.04
RNA-seq results: G6PC3 expression (gene G6PC3, hepatocytes): −0.38
RNA-seq results: G6PC expression (gene G6PC, hepatocytes): −0.03
RNA-seq results: G6PD expression (gene G6PD, hepatocytes): 1.7
RNA-seq results: GALK1 expression (gene GALK1, hepatocytes): −0.7
RNA-seq results: GALK2 expression (gene GALK2, hepatocytes): −1.47
RNA-seq results: GALT expression (gene GALT, hepatocytes): −0.43
RNA-seq results: GATA6 expression (gene GATA6, hepatocytes): −0.77
RNA-seq results: GATM expression (gene GATM, hepatocytes): −1.11
RNA-seq results: GBA expression (gene GBA, hepatocytes): −0.38
RNA-seq results: GBE1 expression (gene GBE1, hepatocytes): −2.25
RNA-seq results: GCH1 expression (gene GCH1, hepatocytes): 0.43
RNA-seq results: GCKR expression (gene GCKR, hepatocytes): −0.16
RNA-seq results: GCLC expression (gene GCLC, hepatocytes): −0.18
RNA-seq results: GOSH expression (gene GOSH, hepatocytes): −1.49
RNA-seq results: RRM2B (gene RRM2B, hepatocytes): 1.19
RNA-seq results: RSAD1 (gene RSAD1, hepatocytes): −0.23
RNA-seq results: SAMHD1 (gene SAMHD1, hepatocytes): −0.05
RNA-seq results: SC5D (gene SC5D, hepatocytes): 1.56
RNA-seq results: SCARB1 (gene SCARB1, hepatocytes): −0.35
RNA-seq results: SCN9A (gene SCN9A, hepatocytes): −0.22
RNA-seq results: SDCCAG8 (gene SDCCAG8, hepatocytes): 0.11
RNA-seq results: SEPN1 (gene SEPN1, hepatocytes): −0.07
RNA-seq results: SERAC1 (gene SERAC1, hepatocytes): 0.26
RNA-seq results: SERPINA1 (gene SERPINA1, hepatocytes): −0.05
RNA-seq results: SERPING1 (gene SERPING1, hepatocytes): 0.28
RNA-seq results: SERPINI1 (gene SERPINI1, hepatocytes): 0.22
RNA-seq results: SETBP1 (gene SETBP1, hepatocytes): 0.54
RNA-seq results: SFXN4 (gene SFXN4, hepatocytes): −0.14
RNA-seq results: SLC10A1 (gene SLC10A1, hepatocytes): 1.13
RNA-seq results: SLC10A3 (gene SLC10A3, hepatocytes): −1.25
RNA-seq results: SLC10A5 (gene SLC10A5, hepatocytes): 2.20
RNA-seq results: SLC10A7 (gene SLC10A7, hepatocytes): 0.55
RNA-seq results: SLC11A2 (gene SLC11A2, hepatocytes): 0.65
RNA-seq results: SLC19A1 (gene SLC19A1, hepatocytes): −0.71
RNA-seq results: SLC19A2 (gene SLC19A2, hepatocytes): 0.62
RNA-seq results: SLC19A3 (gene SLC19A3, hepatocytes): 0.68
RNA-seq results: SLC22A1 (gene SLC22A1, hepatocytes): 0.08
RNA-seq results: SLC22A5 (gene SLC22A5, hepatocytes): −0.72
RNA-seq results: SLC25A1 (gene SLC25A1, hepatocytes): −0.29
RNA-seq results: SLC25A10 (gene SLC25A10, hepatocytes): −0.45
RNA-seq results: SLC25A12 (gene SLC25A12, hepatocytes): −0.06
RNA-seq results: SLC25A13 (gene SLC25A13, hepatocytes): 0.72
RNA-seq results: SLC25A15 (gene SLC25A15, hepatocytes): 0.58
RNA-seq results: SLC25A19 (gene SLC25A19, hepatocytes): −0.70
RNA-seq results: SLC25A20 (gene SLC25A20, hepatocytes): −0.52
RNA-seq results: SLC25A29 (gene SLC25A29, hepatocytes): −1.07
RNA-seq results: SLC25A32 (gene SLC25A32, hepatocytes): −0.50

CSCC[C@H](N)C(=O)N[C@@]1(C(=O)O)CS(=O)(=O)[C@H]2[C@H](C(=O)O)[C@H]21 [Pomaglumetad methionil]
significant changes in gene expression (RNA-seq of Table 36, FPKM≥0.5, log 2(fold-change)≥1, q-value≤0.05): not observed to cause any significant changes in gene expression
significant modulation of expression of any of the genes analyzed (RNA-seq, p≤0.05, hepatocytes): not observed to significantly modulate expression

CN(C)[C@@H]1C(O)=C(C(N)=O)C(=O)[C@@]2(O)C(O)=C3C(=O)c4c(O)c(NC(=O)CN5CCCC5)cc(F)c4C[C@H]3C[C@@H]12 [TP-434 (Eravacycline), Eravacycline]
Number (#) of genes having significantly changed expression: 232
significant modulation of expression of disease genes (RNA-seq, q≤0.05, hepatocytes, genes in the value or listed in the block): significantly (q≤0.05) modulate expression
B2M expression, RNA-seq result (gene B2M, hepatocytes): 0.56
B9D2 expression, RNA-seq result (gene B9D2, hepatocytes): 0.16
BAAT expression, RNA-seq result (gene BAAT, hepatocytes): −0.52
BBOX1 expression, RNA-seq result (gene BBOX1, hepatocytes): −0.06
BBS10 expression, RNA-seq result (gene BBS10, hepatocytes): 0.05
BCHE expression, RNA-seq result (gene BCHE, hepatocytes): 0.12
BCKDHB expression, RNA-seq result (gene BCKDHB, hepatocytes): 0.04
BCKDK expression, RNA-seq result (gene BCKDK, hepatocytes): −0.23
BCO1 expression, RNA-seq result (gene BCO1, hepatocytes): −0.13
BCR expression, RNA-seq result (gene BCR, hepatocytes): −0.17
BLNK expression, RNA-seq result (gene BLNK, hepatocytes): −0.18
BLOC1S3 expression, RNA-seq result (gene BLOC1S3, hepatocytes): 0.32
BMPR1A expression, RNA-seq result (gene BMPR1A, hepatocytes): −0.06
BRAF expression, RNA-seq result (gene BRAF, hepatocytes): 0.03
BSCL2 expression, RNA-seq result (gene BSCL2, hepatocytes): 1.5
BTD expression, RNA-seq result (gene BTD, hepatocytes): −0.25
C4A expression, RNA-seq result (gene C4A, hepatocytes): −0.38
C9 expression, RNA-seq result (gene C9, hepatocytes): 0.21
C10orf10 expression, RNA-seq result (gene C10orf10, hepatocytes): −0.02
C10orf11 expression, RNA-seq result (gene C10orf11, hepatocytes): 0.56
C15orf41 expression, RNA-seq result (gene C15orf41, hepatocytes): 0.12
CA2 expression, RNA-seq result (gene CA2, hepatocytes): 0.71
CA5A expression, RNA-seq result (gene CA5A, hepatocytes): 0.32
CA12 expression, RNA-seq result (gene CA12, hepatocytes): 0.2
CAV1 expression, RNA-seq result (gene CAV1, hepatocytes): 0.34
CCND1 expression, RNA-seq result (gene CCND1, hepatocytes): −0.7
CD46 expression, RNA-seq result (gene CD46, hepatocytes): 0.23
CD81 expression, RNA-seq result (gene CD81, hepatocytes): 0.17
CD320 expression, RNA-seq result (gene CD320, hepatocytes): 0.3
CDAN1 expression, RNA-seq result (gene CDAN1, hepatocytes): −0.27
CDH1 expression, RNA-seq result (gene CDH1, hepatocytes): −0.59
CEP19 expression, RNA-seq result (gene CEP19, hepatocytes): 0.1
CEP83 expression, RNA-seq result (gene CEP83, hepatocytes): −0.15
CEP164 expression, RNA-seq result (gene CEP164, hepatocytes): −0.21
CEP290 expression, RNA-seq result (gene CEP290, hepatocytes): 0.55
CFB expression, RNA-seq result (gene CFB, hepatocytes): 0.23
CFHR2 expression, RNA-seq result (gene CFHR2, hepatocytes): 0.4
CHRM3 expression, RNA-seq result (gene CHRM3, hepatocytes): −0.27
CIDEC expression, RNA-seq result (gene CIDEC, hepatocytes): −0.79
CLDN1 expression, RNA-seq result (gene CLDN1, hepatocytes): 0.09
COG1 expression, RNA-seq result (gene COG1, hepatocytes): −0.37
